Series [1] concerns the target DNA topoisomerase 2-alpha (Homo sapiens) (UniProt P11388). The experiment in a line: Inhibition of human DNA topoisomerase 2alpha-mediated decatenation of kinetoplast DNA at 100 uM after 30 mins by agarose gel electrophoresis.
The nature of series [2]: (§1) Cytotoxicity against HEK293 cells assessed as reduction in cell viability after 48 hrs by MTT assay. Particulars: Homo sapiens, HEK293, 48 h; read-out: LC50 (the source's name). The class given is functional. A general note: Formazan colour is commonly taken as a measure of viable cells.
Series [3] can be described thus: Cytotoxicity against African green monkey Vero cells assessed as reduction in cell viability after 48 hrs by MTT assay. The series is classed as toxicity, cell-based. Particulars: chlorocebus sabaeus; for CC50 at 48 h: Vero cells, read-out: LC50; for Activity: vero, 48 h.
Series [4] relates to HEK293. Described as §1. The class given is functional. Particulars: Homo sapiens.
Series [5] in a line: Cytotoxicity against human MCF7 cells assessed as reduction in cell viability after 48 hrs by MTT assay. The class given is functional, cell-based. Particulars: MCF7, 48 h.
Series [6] is described as follows: Cytotoxicity against human HeLa cells assessed as reduction in cell viability after 48 hrs by MTT assay. The class given is functional, cell-based.
The nature of series [7]: Cytotoxicity against human A549 cells assessed as reduction in cell viability after 48 hrs by MTT assay. The class given is functional, cell-based. Particulars: A549, 48 h.
Series [8] in a line: Cytotoxicity against human HCT116 cells assessed as reduction in cell viability after 48 hrs by MTT assay. The class given is functional, cell-based. Particulars: HCT-116, 48 h.
A short description of series [9]: Cytotoxicity against human H357 cells assessed as reduction in cell viability after 48 hrs by MTT assay. The series is classed as functional, cell-based. Particulars: H357, 48 h.
Series [10] is described as follows: (§2) Anticlonogenic activity against HEK293 cells assessed as inhibition of colony formation incubated for 48 hrs measured after 6 days by crystal violet staining based assay. The series is classed as functional. Particulars: Homo sapiens, read-out: LC50 (the source's name).
Series [11] concerns HEK293. Described as §2. The class given is functional. Particulars: Homo sapiens.
In series [12] the test system is HEK293. Briefly: Potency index, ratio of etoposide LC50 to compound LC50 for anticlonogenic activity in HEK293 cells. The series is classed as functional, Homo sapiens.
Series [13] is described as follows: Binding affinity to DNA (unknown origin) assessed as hypochromism after 1 hr by UV-Vis absorption spectrophotometric analysis.
For series [14], the species on record is Bos taurus. Briefly: Binding affinity to calf thymus DNA assessed as DNA intercalation by measuring conformational changes at 100 uM after 2 hrs by CD spectroscopic analysis.

Molecules are shown by their SMILES. Active and inactive are the calls of the source. No cut-off for these calls is given here.

The results in this text go back to ChEMBL document CHEMBL3865786, “Scaffold-hopping of bioactive flavonoids: Discovery of aryl-pyridopyrimidinones as potent anticancer agents that inhibit catalytic role of topoisomerase IIα” (Eur J Med Chem, 2016).

DNA topoisomerase 2-alpha (Homo sapiens), sequence (P11388 whole entry): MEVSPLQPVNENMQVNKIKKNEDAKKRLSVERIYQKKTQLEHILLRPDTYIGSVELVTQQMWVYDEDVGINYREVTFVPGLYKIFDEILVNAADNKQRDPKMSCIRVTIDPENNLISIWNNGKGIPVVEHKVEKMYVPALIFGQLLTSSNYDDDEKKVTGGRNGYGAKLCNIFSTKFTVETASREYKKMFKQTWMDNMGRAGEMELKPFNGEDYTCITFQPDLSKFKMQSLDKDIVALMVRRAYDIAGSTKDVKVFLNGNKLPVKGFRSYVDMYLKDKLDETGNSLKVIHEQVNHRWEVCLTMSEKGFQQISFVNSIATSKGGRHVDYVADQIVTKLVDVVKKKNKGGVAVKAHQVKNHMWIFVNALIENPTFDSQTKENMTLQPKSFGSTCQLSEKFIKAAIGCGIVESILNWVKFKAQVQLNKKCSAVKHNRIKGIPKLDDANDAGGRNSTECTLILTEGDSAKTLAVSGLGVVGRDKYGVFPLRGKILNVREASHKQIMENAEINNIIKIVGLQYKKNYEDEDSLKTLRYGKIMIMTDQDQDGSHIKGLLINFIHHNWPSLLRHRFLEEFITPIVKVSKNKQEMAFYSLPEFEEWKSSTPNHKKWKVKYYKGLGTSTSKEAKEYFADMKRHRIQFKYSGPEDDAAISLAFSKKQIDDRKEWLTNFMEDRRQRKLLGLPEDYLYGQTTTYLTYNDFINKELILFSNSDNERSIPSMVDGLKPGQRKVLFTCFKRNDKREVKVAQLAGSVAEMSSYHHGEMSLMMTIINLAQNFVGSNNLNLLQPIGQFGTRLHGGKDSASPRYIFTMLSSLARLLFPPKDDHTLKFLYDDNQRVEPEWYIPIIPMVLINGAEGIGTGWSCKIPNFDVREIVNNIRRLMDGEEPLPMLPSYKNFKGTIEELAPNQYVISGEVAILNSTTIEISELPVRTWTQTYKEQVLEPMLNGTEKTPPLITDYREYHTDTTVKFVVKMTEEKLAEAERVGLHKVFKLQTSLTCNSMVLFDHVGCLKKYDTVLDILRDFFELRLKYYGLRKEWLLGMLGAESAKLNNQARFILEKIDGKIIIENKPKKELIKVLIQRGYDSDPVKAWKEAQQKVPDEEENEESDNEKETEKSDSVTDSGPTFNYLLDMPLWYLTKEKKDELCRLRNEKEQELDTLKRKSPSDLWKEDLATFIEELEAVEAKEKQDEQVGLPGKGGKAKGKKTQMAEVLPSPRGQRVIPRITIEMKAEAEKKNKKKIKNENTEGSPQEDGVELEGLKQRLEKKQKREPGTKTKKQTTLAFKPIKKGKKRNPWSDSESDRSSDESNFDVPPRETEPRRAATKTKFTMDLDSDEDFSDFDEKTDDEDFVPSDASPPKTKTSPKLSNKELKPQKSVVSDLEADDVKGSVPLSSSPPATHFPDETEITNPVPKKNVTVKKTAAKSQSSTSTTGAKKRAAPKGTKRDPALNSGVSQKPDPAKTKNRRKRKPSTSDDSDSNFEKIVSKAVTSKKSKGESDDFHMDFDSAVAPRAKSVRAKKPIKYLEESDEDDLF

On to `COc1ccc(-c2cc(=O)c3ccccc3o2)cc1` [4'-METHOXYFLAVONE], for which, in series [1], the “Topoisomerase 2-alpha inhibition (active/inactive)” value was “Active”. In addition, the CC50 in [2] amounted to 8.5 µM. The CC50 at 48 h in series [3] worked out at 45 µM.
On the same counts, the results for `COc1cc(-c2coc3ccccc3c2=O)cc(OC)c1OC` are “Active”, 10 µM and 50 µM.
Broadly, the IC50 is the concentration at which inhibition is half-maximal. For the molecule `Cc1ccc(-c2cnc3ccccn3c2=O)cc1`, the “Topoisomerase 2-alpha inhibition (active/inactive)” value in series [1] was “Active”. For the same molecule, the CC50 in series [2] amounted to 3.5 µM; in series [10] it was 2.5 µM. In addition, the Activity entry in [4] and in [3] was “Dose-dependent effect” throughout. In addition, the CC50 at 48 h in series [3] stood at 44 µM. Moreover, the IC50 worked out at 4 µM in [5]; 3 µM in series [6]; 2.5 µM in [7]; 2.5 µM in series [8]; 2.8 µM in series [9]. Moreover, the inhibition entry in series [11] was “Dose-dependent effect”. Moreover, in [12], the RatioLC50 was 5 - 10.
In the case of `COc1ccc(-c2cnc3ccccn3c2=O)cc1`, the “Topoisomerase 2-alpha inhibition (active/inactive)” value in series [1] was “Active”. In series [2], the CC50 was 19 µM. For the same molecule, the CC50 at 48 h in series [3] was 38 µM.
For `COc1cc(-c2cnc3ccccn3c2=O)cc(OC)c1OC`, in [1], the “Topoisomerase 2-alpha inhibition (active/inactive)” value was “Active”. For the same molecule, the CC50 in [2] was 3 µM; in series [10] it was 1.8 µM. The Activity result in [4] and in [3] was “Dose-dependent effect” in each case. In series [3], the CC50 at 48 h is 40 µM. In addition, the IC50 stood at 3 µM in [5]; 2.8 µM in series [6]; 2.1 µM in series [7]; 3.2 µM in series [8]; 3 µM in series [9]. In addition, the inhibition entry in series [11] is “Dose-dependent effect”. Besides, the RatioLC50 in [12] is 5 - 10.
Consider `O=c1c(-c2cccc3ccccc23)coc2ccccc12`, for which the “Topoisomerase 2-alpha inhibition (active/inactive)” value in series [1] is “Active”. The CC50 in [2] came to 12 µM. Besides, in series [3], the CC50 at 48 h came to 42 µM.
On the same counts, the results for `COc1cccc(-c2cnc3ccccn3c2=O)c1` are “Active”, 9 µM and 46 µM.
Consider `O=c1c(-c2cc(O)cc(O)c2)cnc2ccccn12`, for which the “Topoisomerase 2-alpha inhibition (active/inactive)” value in [1] is “Active”. Further, the CC50 came out at 2 µM in series [2] and 2.4 µM in series [10]. Further, the Activity result in series [4] and in series [3] was “Dose-dependent effect” in each case. Moreover, the CC50 at 48 h in series [3] came out at 50 µM. Further, the IC50 stood at 2 µM in series [5]; 1.5 µM in series [6]; 2.8 µM in series [7]; 3 µM in series [8]; 3 µM in [9]. Besides, the inhibition entry in [11] was “Dose-dependent effect”. In series [12], the RatioLC50 was 5 - 10.
For the molecule `O=c1c(-c2cccc(O)c2)cnc2ccccn12`, the “Topoisomerase 2-alpha inhibition (active/inactive)” value in series [1] is “Active”. The CC50 in [2] turned out to be 6 µM. Moreover, the CC50 at 48 h in series [3] came to 52 µM.
On the same counts, the results for `O=c1c(-c2ccc(O)c(O)c2)cnc2ccccn12` are “Active”, 9 µM and 38 µM.
Turning to `O=Cc1ccc(-c2cc(=O)n3ccccc3n2)cc1`, in [1], the “Topoisomerase 2-alpha inhibition (active/inactive)” value was “Active”. Further, the CC50 turned out to be 3 µM in series [2] and 2.5 µM in series [10]. Besides, the Activity result in [4] and in series [3] was “Dose-dependent effect” each time. In addition, the CC50 at 48 h in series [3] stood at 48 µM. For the same molecule, the IC50 in series [5] was found to be 2.5 µM; in series [6], 3 µM; in series [7], 2.4 µM; in series [8], 3.5 µM; in series [9], 2.5 µM. Further, the inhibition result in series [11] is “Dose-dependent effect”. In addition, the RatioLC50 in [12] was 5 - 10. In series [13], the result was Active.
For `COc1cc([C@@H]2c3cc4c(cc3[C@@H](O[C@@H]3O[C@@H]5CO[C@@H](C)O[C@H]5[C@H](O)[C@H]3O)[C@H]3COC(=O)[C@H]23)OCO4)cc(OC)c1O` [ETOPOSIDE], the “Topoisomerase 2-alpha inhibition (active/inactive)” value in [1] was “Active”. Also, the CC50 in series [2] was 22 µM; in series [10], 20 µM. In series [3], the CC50 at 48 h came to 55 µM.
Regarding `COc1ccc(-c2cc(=O)n3ccccc3n2)cc1OC`, the “Topoisomerase 2-alpha inhibition (active/inactive)” value in [1] is “Active”. Further, the CC50 in [2] was 17 µM. Moreover, the CC50 at 48 h in series [3] came to 50 µM.
Regarding `O=c1c(-c2ccccc2)cnc2c(OCc3ccccc3)cccn12`, the “Topoisomerase 2-alpha inhibition (active/inactive)” value in series [1] is “Active”. For the same molecule, the CC50 in [2] worked out at 3 µM; in series [10], 3.8 µM. Also, the Activity entry in series [4] and in [3] was “Dose-dependent effect” in each case. The CC50 at 48 h in series [3] amounted to 60 µM. In addition, the IC50 in series [5] came out at 2 µM; in series [6] it was 1.5 µM; in [7], 2 µM; in series [8] it was 3 µM; in series [9], 3 µM. Besides, the inhibition entry in series [11] was “Dose-dependent effect”. In addition, the RatioLC50 in [12] is 5 - 10.
Consider `O=c1c(-c2cccc3ccccc23)cnc2ccccn12`, for which the “Topoisomerase 2-alpha inhibition (active/inactive)” value in [1] was “Active”. For the same molecule, in [2], the CC50 turned out to be 7 µM. For the same molecule, in series [3], the CC50 at 48 h stood at 60 µM.
On the same counts, the results for `COc1cc(-c2cc(=O)c3ccccc3o2)cc(OC)c1OC` are “Active”, 12 µM and 52 µM.
In the case of `CC[n+]1c(-c2ccccc2)c2cc(N)ccc2c2ccc(N)cc21`, in [14], the outcome was Active.
As for `Cc1ccc(-c2coc3ccccc3c2=O)cc1`, the “Topoisomerase 2-alpha inhibition (active/inactive)” value in [1] is “Active”. Moreover, the CC50 in [2] was 8 µM. In [3], the CC50 at 48 h is 48 µM.
On the same counts, the results for `O=c1cc(-c2ccc3c(c2)OCO3)oc2ccccc12` are “Active”, 8 µM and 48 µM.
As to `COc1ccc(-c2coc3ccccc3c2=O)cc1`, the CC50 in series [2] was found to be 12 µM. Also, the CC50 at 48 h in series [3] was 52 µM.
Regarding `O=c1cc(-c2ccc3c(c2)OCO3)nc2ccccn12`, the “Topoisomerase 2-alpha inhibition (active/inactive)” value in series [1] was “Active”. The CC50 in series [2] was 15.5 µM. In series [3], the CC50 at 48 h came to 52 µM.
On the same counts, the results for `O=c1c(-c2ccc3c(c2)OCO3)cnc2ccccn12` are “Active”, 15 µM and 48 µM.
With `COc1cc(-c2cc(=O)n3ccccc3n2)cc(OC)c1OC`, the “Topoisomerase 2-alpha inhibition (active/inactive)” value in series [1] is “Active”. Also, the CC50 in series [2] worked out at 9 µM. In addition, the CC50 at 48 h in series [3] worked out at 46 µM. In [13], the outcome was Active.
As to `COc1ccc(-c2cc(=O)n3ccccc3n2)cc1`, the “Topoisomerase 2-alpha inhibition (active/inactive)” value in series [1] was “Active”. The CC50 in [2] came to 8 µM. Further, in [3], the CC50 at 48 h worked out at 60 µM.
On the same counts, the results for `O=c1cc(-c2ccc(O)c(O)c2)nc2ccccn12` are “Active”, 13 µM and 32 µM.
